US10370391B2, “Hydrogen peroxide-activable, anti-oxidant compounds and methods using same” (Beth Israel Deaconess Medical Center, Inc., priority 2014, dated 2019)

Assays:
[1] = H2O2 scavenging by peroxalate chemiluminescence (diphenyl oxalate, rubrene); details: H2O2 solution 10 μM; HBA alone 10 μM
Method: FIG. 21 is a bar graph illustrating H2O2-scavenging by BRAP-encapsulated PLGA microparticles. BRAP-encapsulated PLGA microparticles were incubated in H2O2 solution (10 μM) for 10 minutes, and the level of H2O2 was determined by peroxalate chemiluminesce using rubrene (1 mg) and diphenylperoxalate (10 mg).
Without wishing to be limited by any theory, BRAP could scavenge H2O2 during its H2O2-mediated boronate oxidation. This possibility was investigated using peroxalate chemiluminescence. Peroxalate chemiluminescence has been used as a versatile tool for the detection of a variety of chemical species including fluorescent molecules and H2O2 because of its excellent specificity and simplicity (Hadd, et al., 1999, J. Chem. Educ. 76:1237; Lee, et al., 2011, Bull. Korean Chem. Soc. 32:2187). […] A majority of H2O2 was scavenged by the same concentration of BRAP within 1 minutes.
The ability of the boronate compound to scavenge H2O2 was evaluated by measuring the chemiluminescence intensity after the reaction with diphenyl oxalate solution including rubrene. The boronate (1 μM, or 10 μM) was added in the H2O2 solution (10 μM). After 1 min reaction with H2O2, diphenyl oxalate solution was added to the H2O2 solution, and the chemiluminescence intensity was measured by using a luminometer (Femtomaster FB 12, Zylux Corporation, TN, US; FIG. 13).
The ability of BRAP to scavenge H2O2 was evaluated by measuring the chemiluminescence intensity after the reaction with diphenyl oxalate solution including rubrene. BRAP (1 μM, 5 μM, 10 μM, 20 μM) was added in the H2O2 solution (10 μM). After 1, 5 or 10 min reaction with H2O2, diphenyl oxalate solution was added to the H2O2 solution, and the chemiluminescence intensity was measured by using a luminometer (Femtomaster FB 12, Zylux Corporation, TN, US).

[2] = test system: mouse macrophage (RAW 264.7) cells stimulated by LPS; experiment: Intracellular ROS generation in LPS-stimulated macrophages (DCFH-DA, flow cytometry); format: cell-based; details: HBA 0.5 mM; LPS 1 μg/mL
Method: (§1) FIG. 4, comprising FIGS. 4A-4F, is a set of graphs, bar graphs and images illustrating anti-oxidant and anti-inflammatory effects of BRAP in vitro. […] The generation of ROS was monitored by flow cytometry as an indicator of DCF fluorescence. Fluorescence was analyzed in 10,000 cells with excitation at 480 nm and emission at 530 nm. FIG. 4C: Protective effect of BRAP on H2O2— stimulated adult rat cardiomyocytes. V=vehicle, *<0.05 vs. V+H2O2 (n=4). […] (n=4/group).
The anti-oxidant activities of BRAP were examined using mouse macrophage (RAW 264.7) and fibroblast (NIH/3T3) cells stimulated by LPS (lipopolysaccharide) (FIGS. 4A-4B). Intracellular ROS production in the stimulated cells was analyzed by flow cytometry using DCFH-DA ([…]-diacetate), which can be oxidized by the action of various intracellular oxidants such as H2O2 and hydroxyl radical to become fluorescent […] (DCF) (Kim, et al., 2011, Biomat. 32:3021; Cho, et al., 2012, Adv. Funct. Mat. 22:4038). Untreated cells have no significant DCF fluorescence.

[3] = test system: nitric oxide production in LPS-treated cells; experiment: Nitric oxide generation in LPS-treated cells (Griess reaction); format: cell-based; details: HBA alone
Method: as §1
Nitric oxide is one of major sources of oxidative stress and a well-known pro-inflammatory mediator in the pathogenesis of inflammation (Lundberg, et al., 1997, Nature Medicine 3:30). The effects of BRAP on the generation of nitric oxide in LPS-treated cells were studied using a colorimetric assay based on the Griess reaction.

TNF-α = TNF-α level in LPS-stimulated macrophage cells; format: cell-based, mouse
Method: as §1
(§2) The anti-inflammatory effects of BRAP on LPS-stimulated cells were investigated by measuring the level of inflammatory cytokines such as TNF-α (tumor necrosis factor-alpha) and iNOS (inducible nitric oxide synthases) (FIGS. 4E-4F). […] These observations indicate that BRAP, as well as BRAP-encapsulated PLGA microparticles, is able to scavenge overproduced H2O2 and serve as a H2O2-activable anti-oxidant. Further, the enhanced anti-oxidant activity of BRAP is derived from the combined effects of H2O2-scavenging boronic esters and HBA generation after H2O2-mediated boronate oxidation.

iNOS = iNOS level in LPS-stimulated macrophage cells; format: cell-based, mouse
Method: as §1, §2

hepatic I/R injury = experiment: Mouse model of hepatic I/R injury; format: in vivo; details: ip at reperfusion
Method: FIG. 5, comprising FIGS. 5A-5D, is a set of images and bar graphs illustrating beneficial effects of BRAP in hepatic I/R (1 hour ischemia/12 hour reperfusion) injury. FIG. 5A: Hematoxylin and eosin (H/E) staining, DHE staining, and TUNEL staining of mouse liver after injection with HBA or BRAP. FIGS. 5B-5D: Quantitative analysis of serum ALT levels (FIG. 5B), cleaved caspase-3 protein expression (FIG. 5C), and TNF-α protein expression (FIG. 5D) after I/R injury. *p<0.01 relative to Veh I/R. †p<0.05 relative to HBA I/R (n=3˜4/group). Actin protein expression was used as an internal control for protein loading.
Experiments to evaluate whether BRAP reduces ROS generation and inhibits apoptosis were performed in a mouse model of […] I/R injuries. I/R was induced first by 1 hour of ligation of hepatic artery and portal vein followed by reperfusion of hepatic artery. BRAP or HBA was then administrated intraperitoneally (ip) at the time of reperfusion.
Hepatic I/R surgery was performed in 12 week-old male mice. Briefly, mice were anaesthetized, and midline incision was performed for laparotomy. After identifying the portal triad and biliary tree, the main trunk of hepatic artery and portal vein were clamped with vascular clip except for the vasculatures to the right lower lobe to achieve ischemic injury to approximately 70% of the liver. After 1 hour of ischemia, reperfusion was achieved by releasing the vascular clip. No vascular clamp was done for the sham group of mice.
For liver apoptosis assay, terminal deoxynucleotidyl transferase dUTP nick end labeling (TUNEL) staining was performed using a DeadEnd™ Fluorometric TUNEL kit (Promega, Madison, Wis.). Tissue sections were stained for nuclei (4′,6-diamidino-2-phenylindole (DAPI) staining) and apoptotic nuclei (TUNEL staining) and analyzed using a confocal laser scanning microscope. For heart tissues, TUNEL staining was performed using in situ cell death detection Kit, fluorescein (Roche Applied Science, Indianapolis, Ind.). To distinguish cardiomyocyte from non-cardiomyocyte nuclei, triple stain for nuclei (DAPI staining), apoptotic nuclei (TUNEL staining), and cardiomyocytes (α-Actinin staining) was used, and the stained sections were analyzed using confocal microscopy. A minimum of ˜10 high power fields with ˜2000 nuclei/field were counted for each sample.
Heart tissues were collected for molecular analyses were performed in Bae, et al., 2010, Am J Physiol Heart Circ Physiol 299:H1374. For RT-PCR ribosomal 18S primers acted as internal controls and all RT-PCR signals were normalized to the 18S signal of the corresponding RT products. For Western blot analysis, the protein content was measured using BCA assay. Actin protein expression was used as an internal control for protein loading.
The optimal cutting temperature (OCT)-embedded tissues were fixed in 4% paraformaldehyde. Tissue sections were incubated with 5 μM dihydroethidium (DHE, Sigma-Aldrich) at 37° C. for 30 min in a humidified chamber protected from light. Then, 4′,6-diamidino-2-phenylindole (DAPI) was applied. Images were acquired by confocal fluorescence microscope.

**Q.** For OCc1ccc(O)cc1 [HBA, 4-hydroxybenzyl alcohol, reference compound], which “chemiluminescence intensity (H2O2 scavenging)” value [1] is on record?
**A.** Its value is “did not reduce chemiluminescence intensity”.

**Q.** What about the “inhibition of LPS-induced ROS generation” value [2] of the same molecule?
**A.** The value was “moderate inhibitory effects”.

**Q.** What about the “concentration at which nitric oxide production was inhibited” value [3] of the same molecule?
**A.** Its value is “higher than 0.5 mM”.

**Q.** What about the TNF-α level (TNF-α) of the same molecule?
**A.** Its TNF-α level is “reduced the expression of TNF-α but only at a higher dose than BRAP”.

**Q.** What about the iNOS level (iNOS) of the same molecule?
**A.** Its iNOS level is “failed to reduce iNOS level”.

**Q.** What about the “ROS generation (DHE staining) in liver” value (hepatic I/R injury) of the same molecule?
**A.** The value was “suppressed”.

**Q.** And the “protection from I/R-induced liver damage (serum ALT)” value (hepatic I/R injury)?
**A.** Its value is “much less potent protective effect”.

**Q.** And the “hepatic damages (histology, H/E)” value (hepatic I/R injury; 1 hour ischemia/12 hour reperfusion, same dose of HBA and BRAP)?
**A.** The value was “minimal therapeutic effects”.

**Q.** And the TNF-α protein expression (hepatic I/R injury; same dose of HBA and BRAP)?
**A.** Its TNF-α protein expression is “minimal inhibitory effects”.

**Q.** And the “cleaved caspase-3 protein expression” value (hepatic I/R injury; same dose of HBA and BRAP)?
**A.** The value was “minimal inhibitory effects”.

**Q.** And the “hepatic apoptosis (TUNEL)” value (hepatic I/R injury; same dose of HBA and BRAP)?
**A.** Its value is “modest inhibitory effects”.
